24 molecules from ChEMBL document CHEMBL4765383, “Amphiphilic aminoglycosides with increased selectivity for inhibition of connexin 43 (Cx43) hemichannels” (Eur J Med Chem, 2020) can be followed below.

Test [1] concerns the target Gap junction alpha-1 protein (Homo sapiens) (UniProt P17302). In words: Inhibition of human Cx43 expressed in kanamycin-resistant Escherichia coli LB2003 cells in medium containing […] K+ and 10 uM IPTG by measuring cell growth at 50 uM after 18 hrs by growth complementation assay. More on the design: scale not given: the % may be the effect or the level left.
Test [2] deals with Gap junction beta-2 protein (Homo sapiens) (UniProt P29033). The test is described as follows: Inhibition of human Cx26 expressed in kanamycin-resistant Escherichia coli LB2003 cells in medium containing […] K+ and 500 uM IPTG by measuring cell growth at 15 uM after 18 hrs by growth complementation assay. Also noted: scale not given: the % may be the effect or the level left.

In test [3] the target is Gap junction alpha-1 protein (Homo sapiens) (UniProt P17302). The test is described as follows: Inhibition of human Cx43 expressed in kanamycin-resistant Escherichia coli LB2003 cells in medium containing […] K+ and 10 uM IPTG by measuring cell growth at 15 uM after 18 hrs by growth complementation assay. More on the design: scale not given: the % may be the effect or the level left.

In test [4] the target is Gap junction beta-2 protein (Homo sapiens) (UniProt P29033). The test is described as follows: Inhibition of human Cx26 expressed in kanamycin-resistant Escherichia coli LB2003 cells in medium containing […] K+ and 500 uM IPTG by measuring cell growth at 50 uM after 18 hrs by growth complementation assay. More on the design: scale not given: the % may be the effect or the level left.

Test [5] can be described thus: Selectivity ratio of IC50 for inhibition of human Cx43 to IC50 for inhibition of human Cx26.

Sequence of Gap junction alpha-1 protein (Homo sapiens) (P17302 whole entry): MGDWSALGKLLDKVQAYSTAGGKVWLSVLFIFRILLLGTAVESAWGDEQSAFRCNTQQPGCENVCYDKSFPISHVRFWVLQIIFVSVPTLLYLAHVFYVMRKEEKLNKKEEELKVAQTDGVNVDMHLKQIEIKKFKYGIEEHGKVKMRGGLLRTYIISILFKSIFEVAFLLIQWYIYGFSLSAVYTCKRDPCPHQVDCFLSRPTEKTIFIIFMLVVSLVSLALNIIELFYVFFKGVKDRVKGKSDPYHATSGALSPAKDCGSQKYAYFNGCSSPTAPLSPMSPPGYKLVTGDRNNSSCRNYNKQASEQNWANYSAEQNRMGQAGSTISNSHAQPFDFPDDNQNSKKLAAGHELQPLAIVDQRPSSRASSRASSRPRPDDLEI

Turning to `NC[C@H]1O[C@H](O[C@H]2[C@H](O)[C@@H](O[C@H]3O[C@H](COc4ccc([N+](=O)[O-])cc4)[C@@H](O)[C@H](N)[C@H]3O)[C@H](N)C[C@@H]2N)[C@H](O)[C@@H](O)[C@@H]1O`, the Activity in test [1] came to 49.3%; in test [2], 35.9%; in test [3], 36.5%; in test [4], 62.6%.

Take `NC[C@H]1O[C@H](O[C@H]2[C@H](O)[C@@H](O[C@H]3O[C@H](COCc4ccc(F)cc4)[C@@H](OCc4ccc(F)cc4)[C@H](N)[C@H]3O)[C@H](N)C[C@@H]2N)[C@H](O)[C@@H](O)[C@@H]1O`: in test [5], the Selectivity ratio came to 0.3.

On to `COc1ccc2cc(C(=O)NC[C@H]3O[C@H](O[C@H]4[C@H](O)[C@@H](O[C@H]5O[C@H](CO)[C@@H](O)[C@H](N)[C@H]5O)[C@H](N)C[C@@H]4N)[C@H](O)[C@@H](O)[C@@H]3O)ccc2c1`, for which the Activity in test [1] is 45.1%; in test [2], 15.1%; in test [3] it was 42.1%; in test [4], 27.9%.

Regarding `Cc1ccc(OC[C@H]2O[C@H](O[C@@H]3[C@@H](O)[C@H](O[C@H]4O[C@H](CN)[C@@H](O)[C@H](O)[C@H]4O)[C@@H](N)C[C@H]3N)[C@H](O)[C@@H](N)[C@@H]2O)cc1`, in test [5], the Selectivity ratio is 7.97. The Activity was found to be 76.8% in test [1], 19.3% in test [2], 63.8% in test [3] and 28.2% in test [4].

On to `NC[C@H]1O[C@H](O[C@H]2[C@H](O)[C@@H](O[C@H]3O[C@H](COc4ccc(-c5ccccc5)cc4)[C@@H](O)[C@H](N)[C@H]3O)[C@H](N)C[C@@H]2N)[C@H](O)[C@@H](O)[C@@H]1O`, for which the Activity was determined as 54.3% in test [1], 46.3% in test [2], 27.3% in test [3] and 67.8% in test [4].

Turning to `NC[C@H]1O[C@H](O[C@H]2[C@H](O)[C@@H](O[C@H]3O[C@H](COCc4ccc(Cl)cc4)[C@@H](OCc4ccc(Cl)cc4)[C@H](N)[C@H]3O)[C@H](N)C[C@@H]2N)[C@H](O)[C@@H](O)[C@@H]1O`, the Selectivity ratio in test [5] was found to be 0.15.

With `CCCCCCCCCCCC(=O)NC[C@H]1O[C@H](O[C@H]2[C@H](O)[C@@H](O[C@H]3O[C@H](CO)[C@@H](O)[C@H](N)[C@H]3O)[C@H](N)C[C@@H]2N)[C@H](O)[C@@H](O)[C@@H]1O`, the Selectivity ratio in test [5] was determined as 6.88. Besides, the Activity was determined as 70.9% in test [1], 16.4% in test [2], 53.6% in test [3] and 56.2% in test [4].

For the molecule `N[C@@H]1[C@@H](O)[C@@H](O[C@@H]2[C@@H](O)[C@H](O[C@H]3O[C@H](CNC(=O)c4ccccc4-c4c5ccc(=O)cc-5oc5cc(O)ccc45)[C@@H](O)[C@H](O)[C@H]3O)[C@@H](N)C[C@H]2N)O[C@H](CO)[C@H]1O`, the Selectivity ratio in test [5] was 1.42. Besides, the Activity in test [1] was determined as 83.4%; in test [2], 22.3%; in test [3], 56.8%; in test [4] it was 79.6%.

Take `N[C@@H]1[C@@H](O)[C@@H](O[C@@H]2[C@@H](O)[C@H](O[C@H]3O[C@H](CNC(=O)CCCc4cc5ccc6cccc7ccc(c4)c5c67)[C@@H](O)[C@H](O)[C@H]3O)[C@@H](N)C[C@H]2N)O[C@H](CO)[C@H]1O`: the Selectivity ratio in test [5] was found to be 2.16. In addition, the Activity stood at 69.6% in test [1], 36.9% in test [2], 52.2% in test [3] and 79.2% in test [4].

Regarding `NC[C@H]1O[C@H](O[C@H]2[C@H](O)[C@@H](O[C@H]3O[C@H](COc4ccc(Cl)cc4)[C@@H](O)[C@H](N)[C@H]3O)[C@H](N)C[C@@H]2N)[C@H](O)[C@@H](O)[C@@H]1O`, the Selectivity ratio in test [5] is 1.93. Further, the Activity worked out at 68.3% in test [1], 44.4% in test [2], 50.3% in test [3] and 69.5% in test [4].

On to `N[C@@H]1[C@@H](O)[C@@H](O[C@@H]2[C@@H](O)[C@H](O[C@H]3O[C@H](CNC(=O)c4cc(-c5ccccc5)nc5ccccc45)[C@@H](O)[C@H](O)[C@H]3O)[C@@H](N)C[C@H]2N)O[C@H](CO)[C@H]1O`, for which the Activity is 51% in test [1], 8% in test [2], 25.5% in test [3] and 22.8% in test [4].

As for `CCCCCCCC(=O)NC[C@H]1O[C@H](O[C@H]2[C@H](O)[C@@H](O[C@H]3O[C@H](CO)[C@@H](O)[C@H](N)[C@H]3O)[C@H](N)C[C@@H]2N)[C@H](O)[C@@H](O)[C@@H]1O`, the Activity in test [1] is 37.2%; in test [2], 14%; in test [3], 17%; in test [4], 25.2%.

`CCCCCCC(=O)NC[C@H]1O[C@H](O[C@H]2[C@H](O)[C@@H](O[C@H]3O[C@H](CO)[C@@H](O)[C@H](N)[C@H]3O)[C@H](N)C[C@@H]2N)[C@H](O)[C@@H](O)[C@@H]1O`: the Activity in test [1] is 36%; in test [2] it was 22.5%; in test [3], 18.5%; in test [4], 34.3%.

As to `NC[C@H]1O[C@H](O[C@H]2[C@H](O)[C@@H](O[C@H]3O[C@H](COc4ccccc4)[C@@H](O)[C@H](N)[C@H]3O)[C@H](N)C[C@@H]2N)[C@H](O)[C@@H](O)[C@@H]1O`, the Activity in test [1] came to 46.7%; in test [2] it was 14.6%; in test [3], 36%; in test [4], 69.4%.

With `COc1ccc(COC[C@H]2O[C@H](O[C@@H]3[C@@H](O)[C@H](O[C@H]4O[C@H](CN)[C@@H](O)[C@H](O)[C@H]4O)[C@@H](N)C[C@H]3N)[C@H](O)[C@@H](N)[C@@H]2OCc2ccc(OC)cc2)cc1`, in test [5], the Selectivity ratio came to 3.17.

In the case of `NC[C@H]1O[C@H](O[C@H]2[C@H](O)[C@@H](O[C@H]3O[C@H](COCc4cccc(-c5ccccc5)c4)[C@@H](OCc4cccc(-c5ccccc5)c4)[C@H](N)[C@H]3O)[C@H](N)C[C@@H]2N)[C@H](O)[C@@H](O)[C@@H]1O`, in test [5], the Selectivity ratio is 1.23.

In the case of `NC[C@H]1O[C@H](O[C@H]2[C@H](O)[C@@H](O[C@H]3O[C@H](CNC(=O)c4ccccc4-c4c5ccc(=O)cc-5oc5cc(O)ccc45)[C@@H](O)[C@H](N)[C@H]3O)[C@H](N)C[C@@H]2N)[C@H](O)[C@@H](O)[C@@H]1O`, the Activity was 55.1% in test [1], 37.1% in test [2], 45.3% in test [3] and 81% in test [4].

Consider `COc1ccc(OC[C@H]2O[C@H](O[C@@H]3[C@@H](O)[C@H](O[C@H]4O[C@H](CN)[C@@H](O)[C@H](O)[C@H]4O)[C@@H](N)C[C@H]3N)[C@H](O)[C@@H](N)[C@@H]2O)cc1`, for which the Activity is 34.8% in test [1], 15.9% in test [2], 20% in test [3] and 36.5% in test [4].

In the case of `Cc1ccc(COC[C@H]2O[C@H](O[C@@H]3[C@@H](O)[C@H](O[C@H]4O[C@H](CN)[C@@H](O)[C@H](O)[C@H]4O)[C@@H](N)C[C@H]3N)[C@H](O)[C@@H](N)[C@@H]2OCc2ccc(C)cc2)cc1`, the Selectivity ratio in test [5] was determined as 1.39.

Turning to `CCCCCCCCCC(=O)NC[C@H]1O[C@H](O[C@H]2[C@H](O)[C@@H](O[C@H]3O[C@H](CO)[C@@H](O)[C@H](N)[C@H]3O)[C@H](N)C[C@@H]2N)[C@H](O)[C@@H](O)[C@@H]1O`, the Activity in test [1] was determined as 53.5%; in test [2], 16.1%; in test [3], 44.4%; in test [4], 33.6%.

Take `N[C@@H]1[C@@H](O)[C@@H](O[C@@H]2[C@@H](O)[C@H](O[C@H]3O[C@H](CNC(=O)c4ccc5cc(O)ccc5c4)[C@@H](O)[C@H](O)[C@H]3O)[C@@H](N)C[C@H]2N)O[C@H](CO)[C@H]1O`: the Activity in test [1] came out at 37.1%; in test [2] it was 4.7%; in test [3], 34.1%; in test [4] it was 32.8%.

Consider `NC[C@H]1O[C@H](O[C@H]2[C@H](O)[C@@H](O[C@H]3O[C@H](COCc4ccc5ccccc5c4)[C@@H](OCc4ccc5ccccc5c4)[C@H](N)[C@H]3O)[C@H](N)C[C@@H]2N)[C@H](O)[C@@H](O)[C@@H]1O`, for which, in test [5], the Selectivity ratio is 1.07.

`NC[C@H]1O[C@H](O[C@H]2[C@H](O)[C@@H](O[C@H]3O[C@H](COc4ccc(-c5nc6ccccc6[nH]5)cc4)[C@@H](O)[C@H](N)[C@H]3O)[C@H](N)C[C@@H]2N)[C@H](O)[C@@H](O)[C@@H]1O`: the Selectivity ratio in test [5] came out at 0.34. Further, the Activity in test [1] is 71.7%; in test [2], 83.1%; in test [3] it was 43.2%; in test [4], 85.5%.

As for `Cc1ccc(S(=O)(=O)OC[C@H]2O[C@H](O[C@@H]3[C@@H](O)[C@H](O[C@H]4O[C@H](CN)[C@@H](O)[C@H](O)[C@H]4O)[C@@H](N)C[C@H]3N)[C@H](O)[C@@H](N)[C@@H]2O)cc1`, the Activity was 51% in test [1], 26.8% in test [2], 38.1% in test [3] and 49.2% in test [4].
